Consider one compound from ChEMBL document CHEMBL1629567, “Pharmacodynamics of cidofovir for vaccinia virus infection in an in vitro hollow-fiber infection model system” (Antimicrob Agents Chemother, 2009).

Assay [1] concerns Vaccinia virus. Put plainly: Antiviral activity against Vaccinia virus WR harboring the HIV gag gene infected in HeLaS3 cells after 3 to 5 days by plaque assay. Format: functional, organism-based. As to conditions: Orthopoxvirus vaccinia, HeLa S3.
Assay [2] has as its system Vaccinia virus. Put plainly: Antiviral activity against Vaccinia virus WR harboring the HIV gag gene infected in HeLaS3 cells assessed as inhibition of viral replication in hollow-fiber infection model at >= 50 uM as continuous infusion by plaque assay. Format: functional, organism-based. The following applies: Orthopoxvirus vaccinia, HeLa S3.
Assay [3] deals with Vaccinia virus. Put plainly: Antiviral activity against Vaccinia virus WR harboring the HIV gag gene infected in HeLaS3 cells assessed as inhibition of viral replication in hollow-fiber infection model by plaque assay. Format: functional, organism-based. As to conditions: Orthopoxvirus vaccinia, HeLa S3.
For assay [4], the system named is Vaccinia virus. Put plainly: Antiviral activity against Vaccinia virus WR harboring HIV gag gene infected in HeLaS3 cells at 3 uM as continuous infusion in hollow-fiber infection model after 72 hrs by ELISA. Format: functional, organism-based. As to conditions: Orthopoxvirus vaccinia, HeLa S3.
In assay [5] the test system is Vaccinia virus. As to the kind of experiment: Antiviral activity against Vaccinia virus WR harboring HIV gag gene infected in HeLaS3 cells at 3 uM administered as intermittent infusion over 1 hr measured after 72 hrs in hollow-fiber infection model by ELISA. Format: functional, organism-based. As to conditions: Orthopoxvirus vaccinia, HeLa S3.
The subject of assay [6] is Vaccinia virus. Put plainly: Antiviral activity against Vaccinia virus WR harboring HIV gag gene infected in HeLaS3 cells at 100 uM as continuous infusion in hollow-fiber infection model after 72 hrs by ELISA. Format: functional, organism-based. As to conditions: Orthopoxvirus vaccinia, HeLa S3.
Assay [7] deals with Vaccinia virus. Put plainly: Antiviral activity against Vaccinia virus WR harboring HIV gag gene infected in HeLaS3 cells at 100 uM administered as intermittent infusion over 1 hr measured in hollow-fiber infection model after 72 hrs by ELISA. Format: functional, organism-based. As to conditions: Orthopoxvirus vaccinia, HeLa S3.
In assay [8] the test system is Vaccinia virus. As to the kind of experiment: Antiviral activity against Vaccinia virus WR harboring HIV gag gene infected in HeLaS3 cells at 30 uM as continuous infusion in hollow-fiber infection model after 72 hrs by ELISA. The following applies: Orthopoxvirus vaccinia, HeLa S3. Format: functional, organism-based.
For assay [9], the system named is Vaccinia virus. As to the kind of experiment: Antiviral activity against Vaccinia virus WR harboring HIV gag gene infected in HeLaS3 cells at 30 uM administered as intermittent infusion over 1 hr measured in hollow-fiber infection model after 72 hrs by ELISA. The following applies: Orthopoxvirus vaccinia, HeLa S3. Format: functional, organism-based.
Assay [10] deals with Vaccinia virus. Put plainly: Antiviral activity against Vaccinia virus WR harboring HIV gag gene infected in HeLaS3 cells compound administered as bolus infusion equivalent to 100 uM continuous infusion in hollow-fiber infection model after 72 hrs by ELISA. Format: functional, Orthopoxvirus vaccinia, HeLa S3.

Calls of active or inactive are those of the source. No cut-off for these calls is given here.

With `Nc1ccn(C[C@@H](CO)OCP(=O)(O)O)c(=O)n1.O.O` [CIDOFOVIR], the midpoint of the response with Vaccinia virus [1], the EC50, lay at 30.9 µM. For the same compound, the inhibition entry in the assay with Vaccinia virus [2] is “Active”. In the assay with Vaccinia virus [3], the IC50 came to 38 µM. In addition, the result with Vaccinia virus [4], in the assay on Vaccinia virus [5], in the assay on Vaccinia virus [6], with Vaccinia virus [7], in the assay on Vaccinia virus [8] and in the assay on Vaccinia virus [9] was inactive. For the same compound, the Activity with Vaccinia virus [10] is reported as 81%.
